Assay results published in patent US10933059B2, “Combination, application thereof and treatment method” (KANGPU BIOPHARMACEUTICALS, LTD., priority 2016, dated 2021).

Columns and labels:
Assay type in all cases: cell-based
Vcap cells = experiment: CTG cell proliferation assay on Vcap cells (compounds alone or in combination, 5 days); conditions: for viability at 0.1 µM / viability at 1 µM / viability at 10 µM: Homo sapiens, VCaP, 120 h, read-out: Survival rate of Vcap cells; for Vcap cell proliferation inhibition rate: 5 days
Procedure: In vitro test of the inhibition effect of the compound in combination with androgen receptor pathway modulators on the prostate cancer cell proliferation.
Inhibition effect of the compounds such as B101, B102, B103, B104, B105, B106, C111 and the like, androgen receptor pathway modulators, hormone compounds, alone or in combination with each other on the prostate cancer cell proliferation were tested on Vcap cells (androgen receptor (+) prostate cancer cells) (ATCC, catalogue number CRL-2876). The specific experimental operation was as follows: 5×10^3 Vcap cells per well were inoculated into 96-well plates with transparent bottom and white wall (Corning, catalogue number CLS3903) containing the specific medium, and were cultured in a 37° C., 5% CO2 incubator for 24 hours. The tested compounds and the androgen receptor pathway modulators were prepared to a 150 mM stocking solution with DMSO (Sigma, catalogue number 276855), diluted with culture medium to the desired concentrations (the final concentration of DMSO is 0.2%), and then added to each well, 2 wells/concentration, followed by being incubated in a 37° C., 5% CO2 incubator for 5 days. The tested compounds were used alone or in combination with other androgen receptor pathway modulators and/or hormone compounds respectively. […] After that, 100 μl of CellTiter-Glo® cell viability assay reagent (Promega, catalogue number G7570) was added to each well and mixed well on a vibrator for 10 minutes to induce cell lysis. The 96-well plate was placed at room temperature for 10 minutes, so as to stabilize its luminescence signal. A white bottom membrane was pasted on the bottom of the plate and the plate was tested using EnSpire.

LNCap cells = experiment: CTG cell proliferation assay on LNCap cells (method of Effect embodiment 1)
PSA (Prostate antigen) = experiment: PSA inhibition rate experiment (PSA secretion in supernatant of VCap cells); conditions: Homo sapiens, 120 h
[1] = tested compound 0.1 μM in combination with 1 μM B101
[2] = tested compound 0.1 μM in combination with 1 μM B105
[3] = tested compound 1 μM in combination with 1 μM B101
[4] = tested compound 1 μM in combination with 1 μM B105
[5] = tested compound 10 μM in combination with 1 μM B101
[6] = tested compound 10 μM in combination with 1 μM B105
[7] = tested compound 0.1 μM in combination with 1 μM ARN-509
[8] = tested compound 0.1 μM in combination with 1 μM Abiraterone acetate
[9] = tested compound 0.1 μM in combination with 1 μM Enzalutamide
[10] = tested compound 0.1 μM in combination with 1 μM Galeterone
[11] = tested compound 0.1 μM in combination with 1 μM ODM-201
[12] = tested compound 1 μM in combination with 1 μM ARN-509
[13] = tested compound 1 μM in combination with 1 μM Abiraterone acetate
[14] = tested compound 1 μM in combination with 1 μM Enzalutamide
[15] = tested compound 1 μM in combination with 1 μM Galeterone
[16] = tested compound 1 μM in combination with 1 μM ODM-201
[17] = tested compound 10 μM in combination with 1 μM ARN-509
[18] = tested compound 10 μM in combination with 1 μM Abiraterone acetate
[19] = tested compound 10 μM in combination with 1 μM Enzalutamide
[20] = tested compound 10 μM in combination with 1 μM Galeterone
[21] = tested compound 10 μM in combination with 1 μM ODM-201

## CNC(=O)c1ccc(N2C(=S)N(c3cnc(C#N)c(C(F)(F)F)c3)C(=O)C23CCC3)cc1F [ARN-509, reference compound]
Vcap cells; [1]
  Survival rate of Vcap cells: 42.7%
Vcap cells; [2]
  Survival rate of Vcap cells: 45.3%
Vcap cells; [3]
  Survival rate of Vcap cells: 39.2%
Vcap cells; [4]
  Survival rate of Vcap cells: 38.6%
Vcap cells; [5]
  Survival rate of Vcap cells: 38.4%
Vcap cells; [6]
  Survival rate of Vcap cells: 38.0%
LNCap cells; tested compound alone, 0.1 μM
  Survival rate of LNCap cells: 105.2%
LNCap cells; tested compound alone, 1 μM
  Survival rate of LNCap cells: 86.7%
LNCap cells; tested compound alone, 10 μM
  Survival rate of LNCap cells: 60.2%

## CC(=O)O[C@H]1CC[C@@]2(C)C(=CC[C@@H]3[C@@H]2CC[C@]2(C)C(c4cccnc4)=CC[C@@H]32)C1 [Abiraterone acetate, reference compound]
Vcap cells; tested compound alone
  viability at 0.1 µM: 106%
Vcap cells; tested compound alone, 1 μM
  viability at 1 µM: 91.7%
Vcap cells; [1]
  Survival rate of Vcap cells: 72.2%
Vcap cells; [2]
  Survival rate of Vcap cells: 77.3%
Vcap cells; [3]
  Survival rate of Vcap cells: 70.5%
Vcap cells; [4]
  Survival rate of Vcap cells: 70.7%
Vcap cells; [5]
  Survival rate of Vcap cells: 66.7%
Vcap cells; [6]
  Survival rate of Vcap cells: 69.2%
LNCap cells; tested compound alone, 0.1 μM
  Survival rate of LNCap cells: 109.2%
LNCap cells; tested compound alone, 1 μM
  Survival rate of LNCap cells: 90.7%
LNCap cells; tested compound alone, 10 μM
  Survival rate of LNCap cells: 45.2%

## Nc1cc(F)cc2c1CN(C1CCC(=O)NC1=O)C2=O (stereo not shown) [B101]
Vcap cells; tested compound alone
  viability at 0.1 µM: 77.7%
  viability at 10 µM: 64.7%
Vcap cells; tested compound alone, 1 μM
  viability at 1 µM: 65.4%
Vcap cells; [7]
  Survival rate of Vcap cells: 29.3%
Vcap cells; [8]
  Survival rate of Vcap cells: 61.8%
Vcap cells; [9]
  Survival rate of Vcap cells: 30.6%
Vcap cells; [10]
  Survival rate of Vcap cells: 38.6%
Vcap cells; [11]
  Survival rate of Vcap cells: 43.8%
Vcap cells; [12]
  Survival rate of Vcap cells: 24.3%
Vcap cells; [13]
  Survival rate of Vcap cells: 56.6%
Vcap cells; [14]
  Survival rate of Vcap cells: 25.2%
Vcap cells; [15]
  Survival rate of Vcap cells: 34.4%
Vcap cells; [16]
  Survival rate of Vcap cells: 37.1%
Vcap cells; [17]
  Survival rate of Vcap cells: 24.5%
Vcap cells; [18]
  Survival rate of Vcap cells: 52.9%
Vcap cells; [19]
  Survival rate of Vcap cells: 24.4%
Vcap cells; [20]
  Survival rate of Vcap cells: 32.5%
Vcap cells; [21]
  Survival rate of Vcap cells: 32.5%
LNCap cells; [7]
  Survival rate of LNCap cells: 86.7%
LNCap cells; [8]
  Survival rate of LNCap cells: 82.4%
LNCap cells; [9]
  Survival rate of LNCap cells: 59.3%
LNCap cells; [10]
  Survival rate of LNCap cells: 76.3%
LNCap cells; [12]
  Survival rate of LNCap cells: 46.3%
LNCap cells; [13]
  Survival rate of LNCap cells: 46.2%
LNCap cells; [14]
  Survival rate of LNCap cells: 34.1%
LNCap cells; [15]
  Survival rate of LNCap cells: 43.6%
LNCap cells; [17]
  Survival rate of LNCap cells: 32.4%
LNCap cells; [18]
  Survival rate of LNCap cells: 33.2%
LNCap cells; [19]
  Survival rate of LNCap cells: 27.1%
LNCap cells; [20]
  Survival rate of LNCap cells: 31.4%
LNCap cells; tested compound alone, 0.1 μM
  Survival rate of LNCap cells: 99.6%
LNCap cells; tested compound alone, 1 μM
  Survival rate of LNCap cells: 63%
LNCap cells; tested compound alone, 10 μM
  Survival rate of LNCap cells: 42.4%

## [2H][C@]1(N2Cc3c(N)cc(F)cc3C2=O)CCC(=O)NC1=O [B105]
Vcap cells; B105 or C111 0.05 μM alone
  Vcap cell proliferation inhibition rate: 17.4%
Vcap cells; B105 or C111 0.14 μM alone
  Vcap cell proliferation inhibition rate: 23.9%
Vcap cells; B105 or C111 1.23 μM alone
  Vcap cell proliferation inhibition rate: 26.3%
Vcap cells; B105 or C111 3.70 μM alone
  Vcap cell proliferation inhibition rate: 25.9%
Vcap cells; B105 or C111 11.11 μM alone
  Vcap cell proliferation inhibition rate: 27.0%
Vcap cells; B105 or C111 33.33 μM alone
  Vcap cell proliferation inhibition rate: 27.4%
Vcap cells; B105 or C111 100.00 μM alone
  Vcap cell proliferation inhibition rate: 25.1%
Vcap cells; B105 or C111 300.00 μM alone
  Vcap cell proliferation inhibition rate: 22.8%
Vcap cells; tested compound alone
  viability at 0.1 µM: 83.3%
  viability at 10 µM: 72.7%
Vcap cells; tested compound alone, 1 μM
  viability at 1 µM: 72.5%
Vcap cells; [7]
  Survival rate of Vcap cells: 30.6%
Vcap cells; [8]
  Survival rate of Vcap cells: 65.0%
Vcap cells; [9]
  Survival rate of Vcap cells: 31.6%
Vcap cells; [10]
  Survival rate of Vcap cells: 40.9%
Vcap cells; [11]
  Survival rate of Vcap cells: 43.3%
Vcap cells; [12]
  Survival rate of Vcap cells: 28.0%
Vcap cells; [13]
  Survival rate of Vcap cells: 57.1%
Vcap cells; [14]
  Survival rate of Vcap cells: 27.5%
Vcap cells; [15]
  Survival rate of Vcap cells: 36.7%
Vcap cells; [16]
  Survival rate of Vcap cells: 36.6%
Vcap cells; [17]
  Survival rate of Vcap cells: 27.0%
Vcap cells; [18]
  Survival rate of Vcap cells: 58.0%
Vcap cells; [19]
  Survival rate of Vcap cells: 27.5%
Vcap cells; [20]
  Survival rate of Vcap cells: 36.3%
Vcap cells; [21]
  Survival rate of Vcap cells: 32.2%
LNCap cells; [7]
  Survival rate of LNCap cells: 82.6%
LNCap cells; [8]
  Survival rate of LNCap cells: 83.7%
LNCap cells; [9]
  Survival rate of LNCap cells: 57.5%
LNCap cells; [10]
  Survival rate of LNCap cells: 73.4%
LNCap cells; [12]
  Survival rate of LNCap cells: 44.7%
LNCap cells; [13]
  Survival rate of LNCap cells: 47.9%
LNCap cells; [14]
  Survival rate of LNCap cells: 32%
LNCap cells; [15]
  Survival rate of LNCap cells: 40.6%
LNCap cells; [17]
  Survival rate of LNCap cells: 32.4%
LNCap cells; [18]
  Survival rate of LNCap cells: 31.7%
LNCap cells; [19]
  Survival rate of LNCap cells: 25.8%
LNCap cells; [20]
  Survival rate of LNCap cells: 30.6%
LNCap cells; tested compound alone, 0.1 μM
  Survival rate of LNCap cells: 102.9%
LNCap cells; tested compound alone, 1 μM
  Survival rate of LNCap cells: 61.5%
LNCap cells; tested compound alone, 10 μM
  Survival rate of LNCap cells: 40.8%

## CNC(=O)c1ccc(N2C(=S)N(c3ccc(C#N)c(C(F)(F)F)c3)C(=O)C2(C)C)cc1F [Enzalutamide, reference compound]
PSA (Prostate antigen)
  inhibition at 0.5 µM: 30.7%
LNCap cells; tested compound alone, 0.1 μM
  Survival rate of LNCap cells: 101.5%
LNCap cells; tested compound alone, 1 μM
  Survival rate of LNCap cells: 70.5%
LNCap cells; tested compound alone, 1 μM, listed as enzalutamide
  Survival rate of LNCap cells: 70.5%
LNCap cells; tested compound alone, 10 μM
  Survival rate of LNCap cells: 59.3%

## C[C@]12CC[C@H](O)CC1=CC[C@@H]1[C@@H]2CC[C@]2(C)C(n3cnc4ccccc43)=CC[C@@H]12 [Galeterone, reference compound]
Vcap cells; tested compound alone
  viability at 0.1 µM: 95.9%
  viability at 10 µM: 19.3%
Vcap cells; tested compound alone, 1 μM
  viability at 1 µM: 62.8%
  Survival rate of Vcap cells: 62.8%
LNCap cells; tested compound alone, 0.1 μM
  Survival rate of LNCap cells: 104.9%
LNCap cells; tested compound alone, 1 μM
  Survival rate of LNCap cells: 79%
LNCap cells; tested compound alone, 10 μM
  Survival rate of LNCap cells: 24.2%
